The supplement of paper PMC9912026

Tested on: A375_aEGFR2
Assay: pERK immunofluorescence normalised to no-drug reference (=1); higher = more ERK phosphorylation (less pathway inhibition)
Settings: drug treatment time 24 h, EGF time 8 h
Method: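 A375 CRISPRa-EGFR (A375_aEGFR2) or HT29 cells were treated with two-drug dose combinations (vemurafenib, LY3009120, cobimetinib) for 24 h, then stimulated with EGF (100 ng/mL) or mock medium for 8 h. pERK (T202/Y204) was measured by immunofluorescence as the cytosolic population average, normalised to an untreated no-drug reference of the block (=1). Averages of 2 technical replicates. A375 in 5% FBS, HT29 in 10% FBS.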

CCCS(=O)(=O)Nc1ccc(F)c(C(=O)c2c[nH]c3ncc(-c4ccc(Cl)cc4)cc23)c1F [Vemurafenib] + CNc1ncc2cc(-c3cc(NC(=O)NCCC(C)(C)C)c(F)cc3C)c(C)nc2n1 [LY3009120]
pERK immunofluorescence normalised
Settings	drug A concentration 0.0316228 µM	drug A concentration 0.1 µM	drug A concentration 0.316228 µM	drug A concentration 1 µM	drug A concentration 3.16228 µM	drug A concentration 10 µM
drug B concentration 0 µM, EGF 0 ng/mL	–	0.453	0.252	0.192	0.176	0.164
drug B concentration 0 µM, EGF 100 ng/mL	–	0.761	0.767	0.784	0.761	0.668
drug B concentration 0.0001 µM, EGF 0 ng/mL	–	0.436	0.262	0.185	0.165	0.172
drug B concentration 0.0001 µM, EGF 100 ng/mL	–	0.789	0.764	0.755	0.663	0.644
drug B concentration 0.000316228 µM, EGF 0 ng/mL	–	0.465	0.264	0.191	0.172	0.166
drug B concentration 0.000316228 µM, EGF 100 ng/mL	–	0.802	0.746	0.728	0.678	0.629
drug B concentration 0.001 µM, EGF 0 ng/mL	–	0.482	0.292	0.204	0.168	0.167
drug B concentration 0.001 µM, EGF 100 ng/mL	–	0.771	0.721	0.725	0.701	0.651
drug B concentration 0.00316228 µM, EGF 0 ng/mL	–	0.416	0.295	0.211	0.171	0.171
drug B concentration 0.00316228 µM, EGF 100 ng/mL	–	0.719	0.653	0.678	0.649	0.663
drug B concentration 0.01 µM, EGF 0 ng/mL	–	0.321	0.266	0.201	0.169	0.177
drug B concentration 0.01 µM, EGF 100 ng/mL	–	0.61	0.579	0.598	0.625	0.628
drug B concentration 0.0316228 µM, EGF 0 ng/mL	0.251	0.206	0.203	0.184	0.165	0.172
drug B concentration 0.0316228 µM, EGF 100 ng/mL	0.454	0.45	0.431	0.467	0.508	0.553
drug B concentration 0.1 µM, EGF 0 ng/mL	0.166	0.161	0.158	0.159	0.156	0.165
drug B concentration 0.1 µM, EGF 100 ng/mL	0.319	0.329	0.293	0.308	0.337	0.335
drug B concentration 0.316228 µM, EGF 0 ng/mL	0.146	0.152	0.146	0.152	0.145	0.166
drug B concentration 0.316228 µM, EGF 100 ng/mL	0.216	0.229	0.19	0.195	0.197	0.228
drug B concentration 1 µM, EGF 0 ng/mL	0.152	0.151	0.149	0.149	0.147	0.157
drug B concentration 1 µM, EGF 100 ng/mL	0.156	0.161	0.149	0.149	0.15	0.177
drug B concentration 3.16228 µM, EGF 0 ng/mL	0.15	0.147	0.146	0.152	0.15	0.162
drug B concentration 3.16228 µM, EGF 100 ng/mL	0.138	0.137	0.137	0.137	0.156	0.153
